Measurements published in patent US20220315895A1, “METHODS OF MAKING OLIGOPOTENT AND UNIPOTENT PRECURSORS” (Transfusion Health, LLC, priority 2019, published 2022).

Columns and labels:
[1] = tested on: CD34+ cells from cord blood; assay: HSC Expansion Culture, 21 and 63 days (Example 38); format: cell-based, human; settings: +Formula I Condition (Compound 1.010 8 μM)
Protocol: CD34+ cells from cord blood were purchased from STEMCELL Technologies. Primary human CD34+ cells were isolated by the supplier from cord blood samples using positive immunomagnetic separation techniques. Cells were thawed, gradually brought to room temperature, then washed.
Cells were placed in overnight culture in StemSpan with 100 ng/ml each of FLT3L, TPO, SCF, and IL-6. Eighteen hours later (day 1), cells were counted and immunophenotyped (flow cytometry on an Invitrogen Attune N×T cytometer).
A portion of these cells were washed and placed directly into various “Differentiation Cultures,” described below. The remainder of cells were placed into “HSC Expansion Culture,” described here. Approximately 1000 live cells were plated into duplicate 25 cm^2 flasks; exact cell numbers dispensed per flask were quantified with flow cytometry for later calculations. […]
Following 21 and 63 days in Expansion Culture, prior to passaging or CD34 re-enrichment, a sample was taken from each flask for analysis of phenotypes (flow cytometry on an Invitrogen Attune N×T cytometer). Cell numbers calculated for these analyses take into account passaging of cells on prior days. Fold expansion of CD34+ cells was calculated by dividing the cell numbers at later days (21 and 63) by the number of CD34+ cells quantified at day 1.

[2] = tested on: expanded cord blood CD34+ cells, granulocyte precursor populations; assay: Granulocyte Differentiation Culture, precursor phenotyping (Example 39); format: cell-based, human
Excerpt: The remaining cells from duplicate flasks were pooled, and CD34+ cells were re-enriched using the CD34 MicroBead Kit—UltraPure (Miltenyi Biotec). CD34 purity was verified by flow cytometry. Enriched CD34+ cells were then placed into Granulocyte Differentiation Culture, described below.
Granulocyte Differentiation Cultures were initiated prior to culture in Compound 1.010 (Unexpanded Granulocyte Differentiation Culture), following 21 days of culture in Compound 1.010 (+Formula I-expanded Differentiation Culture), or following 21 days of culture in Control condition (Control-expanded Differentiation Culture). Purified CD34+ cells were plated at 1000 cells per well in a 48-well plate, in granulocyte differentiation medium, made by combining StemSpan SFEM and StemSpan 100X Myeloid Expansion Supplement (formulated for differentiation of granulocytes) containing SCF, TPO, G-CSF, and GM-CSF (STEMCELL). Cells were plated in 300 μl/well. Unexpanded cells were plated in triplicate; Formula I and Control-expanded cells were plated in quadruplicate. Plates were then placed in a humidified incubator at atmospheric oxygen and 5% CO2. Exact cell numbers dispensed per well were quantified with flow cytometry for later calculations.
On days 7, and 10, additional differentiation medium was prepared and cells were passaged to fresh wells.
On days 7 and 13 of Granulocyte Differentiation Culture, a portion of the culture was removed for analysis and quantification of granulocyte differentiation via flow cytometry. Cells were stained with antibodies to CD16, CD15, CD14, CD13, CD11b, and CD34. Cells were gated into granulocyte precursor populations of promyelocyte (CD34−/CD14−/CD15+/CD16-/CD13high/CD11b−), myelocyte (CD34−/CD14−/CD15+/CD16−/CD13dim/CD11b+) and “metamyelocyte+” (CD34−/CD14−/CD15+/CD11b+/CD13+/CD16+). Promyelocyte is the least mature subset, myelocytes are at an intermediate level of maturity, and “metamyelocyte+” encompasses cells at the highest levels of granulocyte maturation, including metamyelocytes and mature neutrophils. Fractional representation and total numbers of granulocyte precursor subsets were calculated. Cell numbers calculated at day 13 account for passaging.

[3] = +Formula I Conditions, 13 days in Granulocyte Differentiation Culture, N 4
[4] = Formula I-expanded (21 days), seven days Granulocyte Differentiation Culture

Compound: CC(C)(C)C(=O)Nc1ccc2c(c1)C(O)c1ccccc1-2 (centres unmarked) [Compound 1.010]
- fold expansion of CD34+ cells ([1]; 21 days): 600 fold
- fold expansion of CD34+ cells ([1]; 63 days): 244,000 fold
- Metamyelocyte+, Mean % of CD15+ cells [2, 3]: 35.2%
- Myelocyte, Mean % of CD15+ cells [2, 3]: 36.8%
- Promyelocyte, Mean % of CD15+ cells [2, 3]: 28%
- cells remaining undifferentiated, without expression of CD15 [2, 4]: 20%
- cells still expressing CD34 [2, 4]: 1.9%
- cells with high CD16 indicative of full differentiation to neutrophils [2, 4]: No cells were detected with high CD16
- metamyelocytes (CD34−/CD14−/CD15+/CD13+/CD11b+/CD16+), of cultured cells [2, 4]: 8%
- myelocytes (CD34−/CD14−/CD15+/CD13low/CD11b+/CD16−), of cultured cells [2, 4]: 15%
- promyelocytes (CD34−/CD14−/CD15+/CD13+/CD11b−/CD16−), of cultured cells [2, 4]: 55%
